Reference: patent publication US8221993B2, “Methods of detecting methyl transferase activity and methods of screening for methyl transferase activity modulators” (Onco Therapy Science, Inc., priority 2004, dated 2012)

Key:
Assay type in all cases: biochemical
[1] = biological target: T1, ZNFN3A1 (Homo sapiens, UniProt Q9H7B4, K13N); assay: In vitro histone H3-K4 methyltransferase assay, peptide competition; set-up: made in house; host or cells: transfected mammalian cells (293T), anti-Flag immunoprecipitate; conditions: recombinant histone H3, SAM and HSP90A, addition of competitor peptide, FIG. 2b
T1 sequence (Q9H7B4 1-428 K13N): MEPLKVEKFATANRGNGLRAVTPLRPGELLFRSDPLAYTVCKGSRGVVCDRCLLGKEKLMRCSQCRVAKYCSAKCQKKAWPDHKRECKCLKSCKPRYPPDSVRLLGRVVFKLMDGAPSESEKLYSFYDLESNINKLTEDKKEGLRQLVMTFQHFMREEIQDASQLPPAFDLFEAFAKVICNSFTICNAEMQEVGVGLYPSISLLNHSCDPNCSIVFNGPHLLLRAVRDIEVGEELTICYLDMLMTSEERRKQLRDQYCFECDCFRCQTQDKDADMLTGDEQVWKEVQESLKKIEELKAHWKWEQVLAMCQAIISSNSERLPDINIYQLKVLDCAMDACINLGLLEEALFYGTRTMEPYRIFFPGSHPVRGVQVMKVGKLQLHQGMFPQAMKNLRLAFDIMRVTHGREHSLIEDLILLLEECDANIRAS
Procedure: H3-K4 specific methyltransferase activity was examined by western blot analysis of recombinant Xenopus H3 protein (UBI) incubated with the immunoprecipitants in the presence of 20 μM unlabeled S-adenosyl-L-methionine (SAM) and 2 μg of HSP90A for 1 hr at 30° C., using antibodies against mono-methylated (Abcam; ab8895), di-methylated (Abcam; ab7766), tri-methylated (Abcam; ab8580) H3-K4, total H3 (Abcam; ab1791), or tri-methylated H3-K9 (UBI; 07523). Lysates of cells transfected with plasmid expressing Flag-tagged wild-type ZNFN3A1, mutant ZNFN3A1, SET7/9, SUV39H1, or mock were immunoprecipitated with anti-Flag antibody (Sigma). Peptides to di-methylated H3-K4 (Abcam; ab7768, ARTK-Me2-QTAR-GGC) and di-methylated H3-K9 (Abcam; ab1772, QTARK-Me2-ST-GGC) were used for competition assay. Recombinant ZNFN3A1 was expressed in E. coli bacteria with plasmids expressing GST-fused ZNFN3A1 or in Sf9 cells with plasmids expressing HA-tagged ZNFN3A1. H3-methyltransferase activity was also analyzed in the presence or absence of 0.04 U SAHH (Sigma) using immunoprecipitated ZNFN3A1 protein or recombinant ZNFN3A1 purified from Sf9 cells.
Since proteins containing SET domain play a crucial role in methylation of histone H3 lysine 4 (H3-K4) or lysine 9 (H3-K9), we investigated whether ZNFN3A1 has an ability to methylate H3-K4 or H3-K9. […]

[2] = biological target: T1, ZNFN3A1; assay: In vitro HMTase assay of SET domain of ZNFN3A1 with/without recombinant HSP90A; set-up: made in house; host or cells: transfected mammalian cells (293T), anti-Flag immunoprecipitate; conditions: wild-type SET of ZNFN3A1, SAM and histones, with recombinant HSP90A, FIG. 1c lane 4 and 5
Procedure: (§1) 293T cells were transfected with plasmid expressing Flag-tagged ZNFN3A1 (pFLAG-CMV-ZNFN3A1), SET7 protein or mock, and purified tagged proteins by immunoprecipitation with anti-Flag antibody. In vitro HMTase assay was performed according to the protocol (1) with a slight modification. Briefly, immunoprecipitated protein was incubated with 25 μg of free histones (mixture of H3, H2B, H2A and H4; Roche) as substrates and 2.5 μCi S-adenosyl-L-[methyl-^3H] methionine as methyl donor in a mixture of 40 μl of methylase activity buffer (50 mM Tris-HCl pH 8.5, 20 mM KCl, 10 mM MgCl2, 10 mM β-mercaptoethanol, 250 mM sucrose), for 60 min at 37° C. […]
Proteins containing the wild-type SET domain of ZNFN3A1 and two forms of mutant protein that lacked one of the two regions were prepared, and cross-linked equal amount of each protein with [^3H]-labeled SAM by exposure to UV-radiation. […] The wild-type SET or control recombinant protein of SET7 was further incubated with [^3H]-labeled SAM and a mixture of histones as substrates, and labeled protein after the separation on SDS-PAGE was measured. As expected, a strong band corresponding to [^3H]-labeled histone H3 protein by the control SET7 (FIG. 1c, lane 3) was detected. When substrates were incubated with the wild-type SET of ZNFN3A1, a faint band corresponding to labeled histone H3 was detected, which was not observed with mock (FIG. 1c, lane 1 and 2). […]

[3] = biological target: T1, ZNFN3A1; assay: In vitro histone H3 methyltransferase activity in the presence or absence of SAHH; set-up: made in house; host or cells: 293T cells transfected with pFLAG-CMV-ZNFN3A1, anti-Flag immunoprecipitate; conditions: presence versus absence of SAHH, FIG. 3d
Procedure: as §1
H3-K4 specific methyltransferase activity was examined by western blot analysis of recombinant Xenopus H3 protein (UBI) incubated with the immunoprecipitants in the presence of 20 μM unlabeled S-adenosyl-L-methionine (SAM) and 2 μg of HSP90A for 1 hr at 30° C., using antibodies against mono-methylated (Abcam; ab8895), di-methylated (Abcam; ab7766), tri-methylated (Abcam; ab8580) H3-K4, total H3 (Abcam; ab1791), or tri-methylated H3-K9 (UBI; 07523). […] H3-methyltransferase activity was also analyzed in the presence or absence of 0.04 U SAHH (Sigma) using immunoprecipitated ZNFN3A1 protein or recombinant ZNFN3A1 purified from Sf9 cells. […]

di- and tri-methylation of H3-K4 by wild-type ZNFN3A1 [1]	Substance	also measured
completely inhibited	ARTK-Me2-QTAR-GGC [di-methylated H3-K4 peptides]	–
–	HSP90A: recombinant 90-kD heat shock protein, interacting protein of ZNFN3A1	methyl transferase activity onto histone H3 [2]: enhanced methyl transferase activity
unaffected	QTARK-Me2-ST-GGC [di-methylated H3-K9 peptides]	–
–	S-adenosyl homocysteine hydrolase [SAHH]	H3 methyltransferase activity of Flag-tagged ZNFN3A1 [3]: significantly higher
